According to ChEMBL document CHEMBL1201862, “PubChem BioAssay data set” (2004):
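In this assay, cells in 96-well plates receive the compound at five concentrations for 48 hours. Endpoints are linearly interpolated between the surrounding concentrations. Here, GI50 denotes the concentration required for 50% inhibition of growth.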 Active and inactive are the calls of the source. Rule as the data show it: active = GI50 up to about 1.1 µM and inactive = higher.

Key:
Assay in all cases: NCI anticancer screen, dose series, 48 h
RXF 393 = test system: RXF 393
HOP-62 = test system: HOP-62
OVCAR-3 = test system: OVCAR-3
NCI-H23 = test system: NCI-H23
OVCAR-5 = test system: OVCAR-5
U-251 = test system: U-251
HCT-116 = test system: HCT-116
BT-549 = test system: BT-549
T47D = test system: T47D
SR = test system: SR
MDA-N = test system: MDA-N
EKVX = test system: EKVX
ACHN = test system: ACHN
HT-29 = test system: HT-29
MCF7 = test system: MCF7
SF-268 = test system: SF-268
Hs-578T = test system: Hs-578T
SNB-75 = test system: SNB-75
A498 = test system: A498

Row | Compound | GI50 (RXF 393) | GI50 (HOP-62) | GI50 (OVCAR-3) | GI50 (NCI-H23) | GI50 (OVCAR-5) | GI50 (U-251) | GI50 (HCT-116) | GI50 (BT-549) | GI50 (T47D) | GI50 (SR) | GI50 (MDA-N) | GI50 (EKVX) | GI50 (ACHN) | GI50 (HT-29) | GI50 (MCF7) | GI50 (SF-268) | GI50 (Hs-578T) | GI50 (SNB-75) | GI50 (A498)
1 | O=CC12CCCN1CCC2 | > 100 µM (inactive) | > 100 µM (inactive) | > 100 µM (inactive) | > 100 µM (inactive) | > 100 µM (inactive) | > 100 µM (inactive) | > 100 µM (inactive) | > 100 µM (inactive) | > 100 µM (inactive) | > 100 µM (inactive) | > 100 µM (inactive) | > 100 µM (inactive) | > 100 µM (inactive) | > 100 µM (inactive) |  |  |  |  | 
2 | COc1ccccc1-c1cc(=O)c2ccccc2n1C1CC1 | 1.84 µM (inactive) | 3.95 µM (inactive) | 1.75 µM (inactive) | 4.99 µM (inactive) | 2.72 µM (inactive) | 3.54 µM (inactive) | 1.23 µM (inactive) |  | 2.37 µM (inactive) | 2.95 µM (inactive) | 4.06 µM (inactive) |  | 2.2 µM (inactive) | 0.0782 µM (active) | 1.98 µM (inactive) | 5.01 µM (inactive) | 5.3 µM (inactive) |  | 
3 | Fc1cc(-c2cc(-c3ccc4c(c3)OCO4)n[nH]2)c(Cl)cc1Cl | 1.89 µM (inactive) | 2.29 µM (inactive) | 2.21 µM (inactive) | 2.47 µM (inactive) | 3.28 µM (inactive) | 1.91 µM (inactive) | 2 µM (inactive) | 6.59 µM (inactive) | 2.2 µM (inactive) | 7.29 µM (inactive) |  | 1.75 µM (inactive) | 1.95 µM (inactive) | 4 µM (inactive) |  | 3.24 µM (inactive) | 3.99 µM (inactive) | 1.8 µM (inactive) | 
4 | O=C1NC(c2cccc(OCc3ccccc3)c2)Nc2ccccc21 (stereo unspecified) | 0.11 µM (active) | 0.359 µM (active) | 0.1 µM (active) | 0.424 µM (active) | 0.374 µM (active) | 0.232 µM (active) | 0.0465 µM (active) |  | 19.1 µM (inactive) | < 0.0298 µM (active) | 0.0187 µM (active) | 0.339 µM (active) | 0.442 µM (active) | 0.12 µM (active) | 0.034 µM (active) | 0.541 µM (active) | 0.241 µM (active) | 0.0703 µM (active) | 0.259 µM (active)
5 | C=C1c2nc3ccccc3n2C=C(c2ccc(C)cc2)N1c1ccc(OC)cc1 | > 56.9 µM (inactive) | > 100 µM (inactive) | 46.8 µM (inactive) | > 73.6 µM (inactive) | > 100 µM (inactive) | 97.7 µM (inactive) | 19.5 µM (inactive) | > 82.8 µM (inactive) | 26.2 µM (inactive) | 3.22 µM (inactive) |  | 32.5 µM (inactive) | 61.5 µM (inactive) | 8.89 µM (inactive) | 15.3 µM (inactive) | > 100 µM (inactive) | > 77.4 µM (inactive) | > 80 µM (inactive) | > 72.9 µM (inactive)
6 | O=c1nc2ccc3sc4ccccc4c(=O)c3n2c(=O)[nH]1 | > 100 µM (inactive) | > 100 µM (inactive) | > 100 µM (inactive) | > 100 µM (inactive) | > 100 µM (inactive) | > 100 µM (inactive) | > 100 µM (inactive) |  |  | > 100 µM (inactive) | > 100 µM (inactive) | 11.7 µM (inactive) | > 100 µM (inactive) | > 100 µM (inactive) | > 100 µM (inactive) | 98.2 µM (inactive) | 19.4 µM (inactive) | > 100 µM (inactive) | > 100 µM (inactive)
7 | CC(=O)OC12c3ccccc3-c3ccccc3C1C1C(=O)N(C)C(=O)C12Cl (stereo unspecified) | > 10 µM (inactive) | > 10 µM (inactive) | > 10 µM (inactive) | > 10 µM (inactive) | > 10 µM (inactive) | > 10 µM (inactive) |  |  | > 10 µM (inactive) | > 10 µM (inactive) | > 10 µM (inactive) | > 10 µM (inactive) | > 10 µM (inactive) | > 10 µM (inactive) | > 10 µM (inactive) | > 10 µM (inactive) | > 10 µM (inactive) | > 10 µM (inactive) | > 10 µM (inactive)
8 | CNc1nc(=O)c(C#N)c(-c2ccc(C)cc2)s1 | > 100 µM (inactive) |  | > 100 µM (inactive) | > 100 µM (inactive) | > 100 µM (inactive) | > 100 µM (inactive) | > 100 µM (inactive) | > 100 µM (inactive) | > 100 µM (inactive) | > 100 µM (inactive) | > 100 µM (inactive) | 67.6 µM (inactive) | > 100 µM (inactive) | > 100 µM (inactive) | > 100 µM (inactive) |  |  | > 100 µM (inactive) | 
9 | O=C(/C=C/c1ccc(Cl)c(Cl)c1)CCN1CCN(CCC(=O)/C=C/c2ccc(Cl)c(Cl)c2)CC1 | 20.2 µM (inactive) | 21.9 µM (inactive) | 23.6 µM (inactive) | > 10 µM (inactive) | 19.2 µM (inactive) | 13.9 µM (inactive) | 7.55 µM (inactive) | 24.1 µM (inactive) | 24.8 µM (inactive) | 12.3 µM (inactive) |  | 30.4 µM (inactive) | 16.9 µM (inactive) | 17.7 µM (inactive) | 4.04 µM (inactive) | 35.4 µM (inactive) |  | 31.9 µM (inactive) | 34.9 µM (inactive)
10 | CCCCCCOc1ccc(C(=O)NOC)cc1 | > 100 µM (inactive) | > 100 µM (inactive) | > 100 µM (inactive) | > 100 µM (inactive) | > 100 µM (inactive) | > 100 µM (inactive) | > 100 µM (inactive) | 82.8 µM (inactive) |  | 62.5 µM (inactive) | > 100 µM (inactive) | > 100 µM (inactive) | > 100 µM (inactive) | > 100 µM (inactive) | > 100 µM (inactive) | > 100 µM (inactive) | > 100 µM (inactive) | > 100 µM (inactive) | 99.1 µM (inactive)
11 | Nc1ccccc1OCc1cc(=O)c(OCc2ccccc2)co1 |  | 33 µM (inactive) | 22.9 µM (inactive) | 39.6 µM (inactive) | 37.4 µM (inactive) | 28.4 µM (inactive) | 64.7 µM (inactive) | 33.5 µM (inactive) | 24.2 µM (inactive) | > 100 µM (inactive) | 19.1 µM (inactive) | 24.1 µM (inactive) | 8.99 µM (inactive) | 5.05 µM (inactive) | 14.7 µM (inactive) | 15.9 µM (inactive) |  |  | 
12 | CNc1ncccc1Nc1cc(=O)n2c3cccnc3n(C)c2c1 | 20.6 µM (inactive) | 36.8 µM (inactive) | > 100 µM (inactive) | 74.6 µM (inactive) | > 100 µM (inactive) | 21.8 µM (inactive) | > 100 µM (inactive) | > 100 µM (inactive) | > 100 µM (inactive) | > 100 µM (inactive) | > 100 µM (inactive) | > 100 µM (inactive) | > 100 µM (inactive) | 58.3 µM (inactive) | > 100 µM (inactive) | 51.8 µM (inactive) |  | 24.9 µM (inactive) | 89.7 µM (inactive)
13 | N#C/C(=C/c1cccc2ccccc12)C(=O)c1ccccc1 |  | 18.3 µM (inactive) | 48.6 µM (inactive) | 17.8 µM (inactive) | 23.6 µM (inactive) | 19 µM (inactive) | 18.5 µM (inactive) |  |  | 26.9 µM (inactive) |  | > 10 µM (inactive) | > 10 µM (inactive) | > 100 µM (inactive) |  |  |  |  | 23.1 µM (inactive)
14 | C[N+]1(C)CCC(C#N)(c2ccccc2)CC1 | > 100 µM (inactive) | > 100 µM (inactive) |  | > 100 µM (inactive) | > 100 µM (inactive) | > 100 µM (inactive) | > 100 µM (inactive) |  | > 100 µM (inactive) | > 100 µM (inactive) | > 100 µM (inactive) | > 100 µM (inactive) | > 100 µM (inactive) | > 100 µM (inactive) | > 100 µM (inactive) | > 100 µM (inactive) | > 100 µM (inactive) | 35.4 µM (inactive) | > 100 µM (inactive)
15 | CC(C)(C)OC(=O)N(CCCCNC(=O)c1ccccc1)CCCNC(=O)c1ccccc1 | > 100 µM (inactive) | > 100 µM (inactive) | > 100 µM (inactive) | > 100 µM (inactive) | > 100 µM (inactive) | > 100 µM (inactive) | > 100 µM (inactive) | > 100 µM (inactive) | 74.3 µM (inactive) | 49.3 µM (inactive) |  | > 100 µM (inactive) | > 100 µM (inactive) | > 100 µM (inactive) | > 100 µM (inactive) | > 100 µM (inactive) | > 100 µM (inactive) | > 100 µM (inactive) | > 100 µM (inactive)
16 | CN1CCN(c2n[nH]c(=O)c3c2nnn3Cc2ccccc2)CC1 | 86.7 µM (inactive) | > 100 µM (inactive) | > 100 µM (inactive) | > 100 µM (inactive) |  | > 100 µM (inactive) | > 100 µM (inactive) | 41.5 µM (inactive) |  | > 100 µM (inactive) | 0.482 µM (active) | > 100 µM (inactive) | > 100 µM (inactive) | 38 µM (inactive) | > 100 µM (inactive) | > 100 µM (inactive) |  | > 100 µM (inactive) | 
17 | COc1ccc(C2=NNC(=O)c3ccccc3N2c2nc(-c3cccs3)nc3cc(OC)c(OC)cc23)cc1 |  | 3.13 µM (inactive) | 2.61 µM (inactive) | 7.13 µM (inactive) | 27.7 µM (inactive) | 3.3 µM (inactive) | 3.92 µM (inactive) | 2.62 µM (inactive) | 2.76 µM (inactive) | 0.673 µM (active) |  | 20.9 µM (inactive) | 3.07 µM (inactive) | 3.15 µM (inactive) | 3.36 µM (inactive) | 6.46 µM (inactive) | 3.85 µM (inactive) | 3.81 µM (inactive) | 2.61 µM (inactive)
